Assay results reported in patent US20040024024A1, “Aromatic sulfone hydroxamates and their use as protease inhibitors” (priority 2001, published 2004).
pIC50: −log10 of the molar value. Where a name gives a salt, the structure may show the parent alone.

Assays:
Experiment in all cases: In vitro MMP inhibition, IC50 determination (fluorogenic substrate I)
Format in all cases: biochemical
Human recombinant MMP-1 = biological target: T1, Human recombinant MMP-1 (Homo sapiens, UniProt P03956)
T1 construct: made in house; host or cells: MMP-1-transfected HT-1080 cells (spent media)
T1 sequence (P03956 100-469): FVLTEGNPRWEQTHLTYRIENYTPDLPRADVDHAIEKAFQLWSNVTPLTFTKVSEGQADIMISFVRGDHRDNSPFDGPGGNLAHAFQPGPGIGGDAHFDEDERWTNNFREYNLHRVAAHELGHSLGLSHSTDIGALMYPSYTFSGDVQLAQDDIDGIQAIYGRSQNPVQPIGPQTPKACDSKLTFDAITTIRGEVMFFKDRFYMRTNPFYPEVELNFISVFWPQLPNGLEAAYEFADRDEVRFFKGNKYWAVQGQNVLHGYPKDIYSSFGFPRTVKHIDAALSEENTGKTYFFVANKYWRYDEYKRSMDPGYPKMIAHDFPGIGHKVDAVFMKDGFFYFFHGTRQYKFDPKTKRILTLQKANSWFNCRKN
How it was run: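 Inhibitor dilutions were made in 100 mM Tris-HCl/100 mM NaCl/10 mM CaCl2 buffer, pH 7.5, and incubated at room temperature with activated proenzyme (from transfected HT-1080 media; APMA or trypsin) and 4 μM quenched methoxycoumarin peptide substrate. Loss of 415 nm fluorescence (328 nm excitation) against concentration gave IC50.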

Human recombinant MMP-2 = biological target: T2, Human recombinant MMP-2 (Homo sapiens, UniProt P08253)
T2 construct: made in house; host or cells: MMP-2-transfected p2AHT2 cells
T2 sequence (P08253 110-660): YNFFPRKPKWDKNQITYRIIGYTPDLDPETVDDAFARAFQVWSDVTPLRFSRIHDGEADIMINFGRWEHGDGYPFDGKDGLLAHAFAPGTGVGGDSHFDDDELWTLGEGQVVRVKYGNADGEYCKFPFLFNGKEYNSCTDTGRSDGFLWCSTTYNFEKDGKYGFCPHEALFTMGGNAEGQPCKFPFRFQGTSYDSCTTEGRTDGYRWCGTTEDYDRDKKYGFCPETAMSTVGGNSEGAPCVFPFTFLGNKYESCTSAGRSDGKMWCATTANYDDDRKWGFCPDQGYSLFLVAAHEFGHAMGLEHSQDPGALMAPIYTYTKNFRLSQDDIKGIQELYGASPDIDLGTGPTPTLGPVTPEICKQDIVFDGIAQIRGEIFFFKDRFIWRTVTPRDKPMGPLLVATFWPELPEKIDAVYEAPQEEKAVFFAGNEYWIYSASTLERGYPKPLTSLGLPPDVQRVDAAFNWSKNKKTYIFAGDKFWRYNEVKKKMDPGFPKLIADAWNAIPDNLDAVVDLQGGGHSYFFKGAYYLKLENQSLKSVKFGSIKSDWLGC
How it was run: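 IC50 was derived from the concentration-dependent fall in fluorescence (ex 328, em 415 nm) on Gly-Leu cleavage of 4 μM MCA/Dpa-quenched substrate I. Assays ran at room temperature in pH 7.5 Tris/NaCl/CaCl2/Brij buffer with MMP-2 activated by trypsin or APMA; inhibitors were diluted from 1% DMSO stocks.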

Human recombinant MMP-9 = biological target: T3, Human recombinant MMP-9 (Homo sapiens, UniProt P14780)
T3 construct: made in house; host or cells: MMP-9-transfected HT1080 cells (spent media)
T3 sequence (P14780 107-707 limits assumed): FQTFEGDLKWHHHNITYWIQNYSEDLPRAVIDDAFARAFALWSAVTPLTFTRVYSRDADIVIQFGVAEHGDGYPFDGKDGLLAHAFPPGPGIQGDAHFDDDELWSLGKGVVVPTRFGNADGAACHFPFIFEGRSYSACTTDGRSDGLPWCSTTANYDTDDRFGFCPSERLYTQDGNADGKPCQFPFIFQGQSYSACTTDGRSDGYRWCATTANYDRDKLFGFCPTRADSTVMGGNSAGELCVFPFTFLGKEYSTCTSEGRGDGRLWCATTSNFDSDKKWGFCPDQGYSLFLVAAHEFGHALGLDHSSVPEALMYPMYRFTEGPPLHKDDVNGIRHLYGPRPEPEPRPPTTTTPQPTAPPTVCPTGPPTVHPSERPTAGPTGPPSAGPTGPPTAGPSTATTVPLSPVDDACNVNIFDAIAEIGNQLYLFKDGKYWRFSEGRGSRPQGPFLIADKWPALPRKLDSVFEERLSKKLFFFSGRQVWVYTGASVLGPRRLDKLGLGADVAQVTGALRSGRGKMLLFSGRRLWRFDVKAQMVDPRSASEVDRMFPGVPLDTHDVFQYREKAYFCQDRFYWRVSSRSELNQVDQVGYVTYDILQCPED
How it was run: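 Reduction in fluorescence (328 nm excitation, 415 nm emission) from cleavage of 4 μM quenched peptide substrate I, measured at room temperature against inhibitor concentration, gave IC50. Enzyme: trypsin- or APMA-activated MMP-9 purified from transfected HT1080 medium; buffer 100 mM Tris, 100 mM NaCl, 10 mM CaCl2, pH 7.5.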

Human recombinant MMP-13 = biological target: T4, Human recombinant MMP-13 (Homo sapiens, UniProt P45452)
T4 construct: made in house; host or cells: baculovirus / insect cells
How it was run: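 Fluorescence at 415 nm (excitation 328 nm) reports Gly-Leu cleavage of 4 μM quenched methoxycoumarin peptide substrate I. Human recombinant MMP-13, activated by trypsin or APMA, was incubated at room temperature with varied inhibitor concentrations in pH 7.5 Tris/NaCl/CaCl2 buffer; IC50 derived from reduced fluorescence.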

Human recombinant MMP-14 = biological target: T5, Human recombinant MMP-14 (Homo sapiens, UniProt P50281)
T5 construct: The catalytic domain enzyme was expressed in E. coli inclusion bodies, solubilized in urea; made in house
How it was run: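 IC50 came from reduced fluorescence (ex 328 nm, em 415 nm) as inhibitor concentration rose, with 4 μM substrate I cleaved at Gly-Leu. Room-temperature incubation in pH 7.5 Tris buffer with 10 mM CaCl2; the E. coli-expressed, refolded MMP-14 catalytic domain was activated with trypsin or APMA.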

[1] = substrate (I) 4 μM, room temperature, values not in parenthesis
[2] = value outside parentheses (Ki in parenthesis)

| SMILES | pIC50 (Human recombinant MMP-1; value outside parenthesis) | pIC50 (Human recombinant MMP-2; value outside parenthesis) | pIC50 (Human recombinant MMP-9; value outside parenthesis) | pIC50 (Human recombinant MMP-13; value outside parenthesis) | pIC50 (Human recombinant MMP-14; value outside parenthesis) | pIC50 (Human recombinant MMP-1; [2]) | pIC50 (Human recombinant MMP-2; [2]) | pIC50 (Human recombinant MMP-9; [2]) | pIC50 (Human recombinant MMP-13; [2]) | pIC50 (Human recombinant MMP-14; [2]) | other results |
| --- | --- | --- | --- | --- | --- | --- | --- | --- | --- | --- | --- |
| O=C(NO)C1(S(=O)(=O)c2ccc(OCCCSc3nc4ccccc4s3)cc2)CCOCC1 [Example 288] | < 5.00 | 8.64 | 7.97 | 9.10 | < 5.00 | – | – | – | – | – | – |
| O=C(NO)C1(S(=O)(=O)c2ccc(OCCCc3cc(-c4ccc(F)cc4)cs3)cc2)CCOCC1 [Example 607] | – | – | – | – | – | – | – | – | – | – | pIC50 (Human recombinant MMP-1; value outside parentheses): < 5.00; pIC50 (Human recombinant MMP-2; value outside parentheses): 7.34; pIC50 (Human recombinant MMP-9; value outside parentheses): 5.64; pIC50 (Human recombinant MMP-13; value outside parentheses): 10.00; pIC50 (Human recombinant MMP-14; value outside parentheses): < 5.00 |
| O=C(NO)C1(S(=O)(=O)c2ccc(OCCCc3nc4ccccc4o3)cc2)CCOCC1 [Example 37, 4-[[4-[3-(2-benzoxazolyl)propoxy]phenyl]sulfonyl]tetrahydro-N-hydroxy-2H-pyran-4-carboxamide] | – | – | – | – | – | – | – | – | – | – | pIC50 (Human recombinant MMP-1; [1]): 5.06; pIC50 (Human recombinant MMP-2; [1]): 7.52; pIC50 (Human recombinant MMP-9; [1]): 6.35; pIC50 (Human recombinant MMP-13; [1]): 8.85; pIC50 (Human recombinant MMP-14; [1]): < 5.00 |
| CC(C)(COc1ccc(S(=O)(=O)C2(C(=O)NO)CCOCC2)cc1)CSc1ccccc1 [Example 437] | – | – | – | – | – | < 5.00 | < 5.00 | < 5.00 | 7.05 | < 5.00 | – |
| O=C(NO)C1(S(=O)(=O)c2ccc(OCCSc3nc4ccccc4o3)cc2)CCOCC1 [Example 410] | – | – | – | – | – | 5.33 | 7.92 | 6.69 | 8.96 | 6.29 | – |
| CN(CCCOc1ccc(S(=O)(=O)C2(C(=O)NO)CCOCC2)cc1)C(=O)c1ccc(N(C)C)cc1 [Example 19, 4-[[4-[3-[[4-(dimethylamino)benzoyl]methylamino]propoxy]phenyl]sulfonyl]tetrahydro-N-hydroxy-2H-pyran-4-carboxamide] | – | – | – | – | – | – | – | – | – | – | pIC50 (Human recombinant MMP-1; [1]): < 5.00; pIC50 (Human recombinant MMP-2; [1]): 5.05; pIC50 (Human recombinant MMP-9; [1]): 5.28; pIC50 (Human recombinant MMP-13; [1]): 7.82; pIC50 (Human recombinant MMP-14; [1]): < 5.00 |
| C[C@H]1[C@@H](c2ccccc2)OC(=O)N1CCCOc1ccc(S(=O)(=O)C2(C(=O)NO)CCOCC2)cc1 [Example 309] | – | – | – | – | – | < 5.00 | 6.87 | 5.81 | 8.74 | < 5.00 | – |
| CC(C)[C@H]1C(=O)N(CCCOc2ccc(S(=O)(=O)C3(C(=O)NO)CCOCC3)cc2)C(=O)N1c1ccccc1 [Example 134] | < 5.00 | 5.62 | < 5.00 | 8.11 | < 5.00 | – | – | – | – | – | – |
| COc1cc(OC)cc(-c2noc(CCCOc3ccc(S(=O)(=O)C4(C(=O)NO)CCOCC4)cc3)n2)c1 [Example 217] | < 5.00 | 7.31 | 5.29 | 8.34 | < 5.00 | – | – | – | – | – | – |
| Cc1cc(-c2nnc(CCCOc3ccc(S(=O)(=O)C4(C(=O)NO)CCOCC4)cc3)o2)ccc1OC(C)C [Example 294] | – | – | – | – | – | 5.34 | 7.00 | 6.35 | 8.37 | < 5.00 | – |
| O=C1N(CCCOc2ccc(S(=O)(=O)C3(C(=O)NO)CCOCC3)cc2)CCN1c1ccc(C(F)(F)F)cc1 [Example 193] | 5.23 | 6.51 | 6.56 | 8.17 | < 5.00 | – | – | – | – | – | – |
| O=C(NCCCOc1ccc(S(=O)(=O)C2(C(=O)NO)CCOCC2)cc1)c1cc2ccccc2cc1O [Example 376] | – | – | – | – | – | < 5.00 | 6.44 | < 5.00 | 9.10 | < 5.00 | – |
| CN(C)c1ccc(NC(=O)CCCCOc2ccc(S(=O)(=O)C3(C(=O)NO)CCOCC3)cc2)cc1 [Example 20, 4-[[4-[[5-[[4-(dimethylamino)-phenyl]amino]-5-oxopentyl]oxy]phenyl]sulfonyl]tetrahydro-N-hydroxy-2H-pyran-4-carboxamide, Monohydrochloride] | – | – | – | – | – | – | – | – | – | – | pIC50 (Human recombinant MMP-1; [1]): < 5.00; pIC50 (Human recombinant MMP-2; [1]): 8.74; pIC50 (Human recombinant MMP-9; [1]): 6.30; pIC50 (Human recombinant MMP-13; [1]): 8.74; pIC50 (Human recombinant MMP-14; [1]): < 5.00 |
| CC(C)Oc1ccc(-c2nnc(CCCOc3ccc(S(=O)(=O)C4(C(=O)NO)CCOCC4)cc3)o2)cc1 [Example 209] | < 5.00 | 6.76 | 6.04 | 8.85 | < 5.00 | – | – | – | – | – | – |
| COC(=O)CCCOc1ccc(S(=O)(=O)C2(C(=O)NO)CCOCC2)cc1 [Example 274] | 5.01 | 7.81 | 7.47 | 8.39 | < 5.00 | – | – | – | – | – | – |
| O=C(NO)C1(S(=O)(=O)c2ccc(OCCCc3nc(-c4ccc(F)cc4)no3)cc2)CCOCC1 [Example 240] | < 5.00 | 7.08 | 5.85 | 9.15 | < 5.00 | – | – | – | – | – | – |
| O=C(NO)C1(S(=O)(=O)c2ccc(OCCCCCn3cnc4ccccc43)cc2)CCOCC1 [Example 359] | – | – | – | – | – | < 5.00 | 8.64 | 5.93 | 9.00 | 5.10 | – |
| CCCC(CCOc1ccc(S(=O)(=O)C2(C(=O)NO)CCOCC2)cc1)S(C)(=O)=O (stereo not drawn) [Example 476] | – | – | – | – | – | < 5.00 | 5.60 | < 5.00 | 6.64 | < 5.00 | – |
| O=C(NO)C1(S(=O)(=O)c2ccc(OCCCOCc3cccnc3)cc2)CCOCC1 [Example 520] | – | – | – | – | – | – | – | – | – | – | pIC50 (Human recombinant MMP-1; value outside parentheses): < 5.00; pIC50 (Human recombinant MMP-2; value outside parentheses): 7.27; pIC50 (Human recombinant MMP-9; value outside parentheses): 7.44; pIC50 (Human recombinant MMP-13; value outside parentheses): 9.21; pIC50 (Human recombinant MMP-14; value outside parentheses): 5.37 |
| Cc1cccc(-c2noc(CCCOc3ccc(S(=O)(=O)C4(C(=O)NO)CCOCC4)cc3)n2)c1 [Example 238] | < 5.00 | 7.10 | 5.93 | 8.92 | < 5.00 | – | – | – | – | – | – |
| O=C(NO)C1(S(=O)(=O)c2ccc(OCCOc3ccc4c(c3)OCO4)cc2)CCOCC1 [Example 665] | – | – | – | – | – | – | – | – | – | – | pIC50 (Human recombinant MMP-1; value outside parentheses): < 5.00; pIC50 (Human recombinant MMP-2; value outside parentheses): 7.94; pIC50 (Human recombinant MMP-9; value outside parentheses): 7.35; pIC50 (Human recombinant MMP-13; value outside parentheses): 8.62; pIC50 (Human recombinant MMP-14; value outside parentheses): 5.67 |
